The values that follow come from patent publication US20130345218A1 (Vertex Pharmaceuticals Incorporated, priority 2010, published 2013).

Where only a bound is given, the exact number is not on record here.

Test [1] deals with influenza A virus (A/PR/8/34). Nature of the test: microbe, parasite or virus in culture. Type of test: cell-based. The conditions noted are these: Influenza A virus, PR/8, MDCK, 72 h, mean IC50 (mean all); MDCK cells, A/PR/8/34, 72 hours; read-out: Flu, MDCK IC50.
Test [2] relates to influenza A virus (A/PR/8/34) minus-strand viral RNA. Nature of the test: microbe, parasite or virus in culture. It counts as cell-based. The conditions noted are these: Influenza A virus, PR/8; mean EC50 (mean all); viral RNA by bDNA; read-out: bDNA EC50.

As usually defined, the IC50 is the concentration at which inhibition is half-maximal. As usually defined, the EC50 is the midpoint of the concentration-response curve. With `O=C(N[C@@H]1CCC[C@H](Nc2nc(-c3c[nH]c4ncc(F)cc34)c(F)cc2F)C1)N1CC[C@H](F)C1` [Compound I-24, (S)—N-((1R,3S)-3-((3,5-difluoro-6-(5-fluoro-1H-pyrrolo[2,3-b]pyridin-3-yl)pyridin-2-yl)-amino)cyclohexyl)-3-fluoropyrrolidine-1-carboxamide], in test [1], the half-maximal inhibitory concentration (IC50) was less than 3.3 µM. Besides, the concentration for a half-maximal effect (EC50) in test [2] was less than 3.3 µM.
With `O=C(O)[C@H]1C2CCC(CC2)[C@@H]1Nc1cc(-c2c[nH]c3ncc(F)cc23)ncc1F` (racemic) [Compound I-50, (+/−)-(2,3)-trans-3-((5-fluoro-2-(5-fluoro-1H-pyrrolo[2,3-b]pyridin-3-yl)pyridin-4-yl)amino)bicyclo[2.2.2]octane-2-carboxylic acid], the IC50 in test [1] was less than 3.3 µM. Besides, the EC50 in test [2] was less than 3.3 µM.
Turning to `N#Cc1cnc(N[C@H]2CCCC[C@@H]2C(=O)O)nc1-c1c[nH]c2ncc(Cl)cc12` [Compound I-1, (1S,2S)-2-((4-(5-chloro-1H-pyrrolo[2,3-b]pyridin-3-yl)-5-cyanopyrimidine-2-yl)amino)-cyclohexanecarboxylic acid], the IC50 in test [1] was less than 3.3 µM. Further, the EC50 in test [2] was less than 3.3 µM.
Take `O=C(O)[C@H]1C2CCC(CC2)[C@@H]1Nc1nc(-c2c[nH]c3ncc(Cl)cc23)c(F)cc1F` [Compound I-34, (2S,3S)-3-((6-(5-chloro-1H-pyrrolo[2,3-b]pyridin-3-yl)-3,5-difluoropyridin-2-yl)amino)-bicyclo[2.2.2]octane-2-carboxylic acid]: the IC50 in test [1] is less than 3.3 µM. The EC50 in test [2] was less than 3.3 µM.
As for `Cn1cnc(C(=O)N[C@@H]2CCC[C@H](Nc3nc(-c4c[nH]c5ncc(F)cc45)c(F)cc3F)C2)c1` [Compound I-18, N-((1R,3S)-3-((3,5-difluoro-6-(5-fluoro-1H-pyrrolo[2,3-b]pyridin-3-yl)pyridin-2-yl)-amino)cyclohexyl)-1-methyl-1H-imidazole-4-carboxamide], in test [1], the IC50 is less than 3.3 µM. In test [2], the half-maximal effective concentration (EC50) was less than 3.3 µM.
As to `O=C(O)[C@H]1C2CCC(CC2)[C@@H]1Nc1nc(Cl)nc(-c2c[nH]c3ncc(F)cc23)n1` (racemic) [Compound I-44, (+/−)-trans-3-(4-chloro-6-(5-fluoro-1H-pyrrolo[2,3-b]pyridin-3-yl)-1,3,5-triazin-2-ylamino)bicyclo[2.2.2]octane-2-carboxylic acid], in test [1], the IC50 was less than 3.3 µM. In test [2], the EC50 was less than 3.3 µM.
On to `O=C(O)[C@H]1C2CCC(CC2)[C@@H]1Nc1nc(-c2c[nH]c3ncc(F)cc23)ccc1F` (racemic) [Compound I-35, (+/−) 3-(3-fluoro-6-(5-fluoro-1H-pyrrolo[2,3-b]pyridin-3-yl)pyridin-2-ylamino)bicyclo[2.2.2]octane-2-carboxylic acid], for which, in test [1], the IC50 is less than 3.3 µM. Further, in test [2], the EC50 is less than 3.3 µM.
For the compound `O=C(O)[C@@H]1C2CCC(CC2)[C@H]1Nc1cc(C(F)(F)F)cc(-c2c[nH]c3ncc(F)cc23)n1` [Compound I-41], the IC50 in test [1] was less than 3.3 µM. Also, the EC50 in test [2] was less than 3.3 µM.
With `CC1(C(=O)N[C@@H]2CCC[C@H](Nc3ncc(C#N)c(-c4c[nH]c5ncc(C(F)(F)F)cc45)n3)C2)CC1` [Compound I-6, N-((1R,3S)-3-((5-cyano-4-(5-(trifluoromethyl)-1H-pyrrolo[2,3-b]pyridin-3-yl)pyrimidin-2-yl)amino)cyclohexyl)-1-methylcyclopropanecarboxamide], in test [1], the IC50 was less than 3.3 µM. Further, the EC50 in test [2] was less than 3.3 µM.
`O=C(N[C@@H]1CCC[C@H](Nc2nc(-c3c[nH]c4ncc(F)cc34)c(F)cc2F)C1)c1ccsc1` [Compound I-47, N-((1R,3S)-3-((3,5-difluoro-6-(5-fluoro-1H-pyrrolo[2,3-b]pyridin-3-yl)pyridin-2-yl)amino)cyclohexyl)thiophene-3-carboxamide]: the IC50 in test [1] was less than 3.3 µM. Besides, in test [2], the EC50 was less than 3.3 µM.
